BigSolDB 2.1

C[C@H]1[C@H](C)CC[C@]2(C(=O)O[C@@H]3O[C@H](CO[C@@H]4O[C@H](CO)[C@@H](O[C@@H]5O[C@@H](C)[C@H](O)[C@@H](O)[C@H]5O)[C@H](O)[C@H]4O)[C@@H](O)[C@H](O)[C@H]3O)CC[C@]3(C)C(=CC[C@@H]4[C@@]5(C)C[C@@H](O)[C@H](O)[C@@](C)(CO)[C@@H]5CC[C@]43C)[C@H]12
solubility (mole fraction)
Conditions | in ethanol | in methanol | in n-butanol | in n-propanol | in water
278.15 K | – | 0.000902 | – | – | –
283.15 K | – | 0.000904 | – | – | –
288.15 K | – | 0.000973 | – | – | –
293.15 K | – | 0.00103 | – | – | –
298.15 K | 0.00014 | 0.00113 | 2.44e-05 | 5.2e-05 | 1.9e-06
303.15 K | 0.000142 | 0.00122 | 2.93e-05 | 6.06e-05 | 2.1e-06
308.15 K | 0.000146 | 0.00139 | 3.45e-05 | 6.78e-05 | 2.5e-06
313.15 K | 0.000152 | 0.0016 | 4.22e-05 | 8.06e-05 | 3.1e-06
318.15 K | 0.000165 | 0.00182 | 5.1e-05 | 9.61e-05 | 4.2e-06
323.15 K | 0.000176 | 0.00216 | 6.36e-05 | 0.000119 | 5.4e-06
328.15 K | 0.000195 | 0.00253 | 8.03e-05 | 0.000144 | 7.1e-06
333.15 K | 0.000217 | – | 0.000101 | 0.000181 | 1.02e-05
338.15 K | – | – | 0.000132 | 0.00023 | –
343.15 K | – | – | 0.000175 | 0.000304 | –
